In ChEMBL document CHEMBL5729354, “Substituted pyrrolo[2,3-d]pyrimidines as JAK inhibitors” (2022):

Legend:
[1] = molecular target: Non-receptor tyrosine-protein kinase TYK2 (Homo sapiens, UniProt P29597); assay: (§1) JAK/TYK2 Assay: 10 mM test compound stock or 1 mM control compound stock (tofocitinib, ruxolitinib or staurosporine) in DMSO was diluted to 0.4 mM in DMSO. A 3-fold series dilution was then performed in DMSO to generate 10 different compound concentrations. The assay was carried out in 384-well white plate. 0.5 uL of 40× compound DMSO solution at different concentrations was mixed with 10 uL 2× enzyme prepared in reaction buffer (20 mM HEPES, 10 mM MgCl2, 0.01% Tween, 1 mM DTT, pH 7.5). 10 uL 2× substrate mixture prepared in reaction buffer was then added to start the reaction. A short spin was done to settle down all solutions to the bottom of the plate. Final concentrations of test compound in the reaction mixture were 10000, 3333, 1111, 370, 123, 41.2, 13.7, 4.57, 1.52 and 0.51 nM. Concentrations of control compound were ten times less. Enzymatic reaction was conducted at 25° C. for 1-2 hours. 10 uL of Kinase Glo Reagents was added to stop the reaction and generate the luminescent signal which was measured using Envision. Luminescence signal was inversely related to kinase activity. […] The mixture without any compound was the positive control. [ATP] [sub] timeJAK1 7.5 nM 2 uM 30 uM (IRS-1) 1 hrJAK2 0.8 nM 2 uM 4 uM (pEY) 1 hrJAK3 1.5 nM 2 uM 4 uM (pEY) 1 hrTYK2 9 nM 2 uM 30 uM (IRS-1) 1 hr
Non-receptor tyrosine-protein kinase TYK2, sequence (P29597 whole entry): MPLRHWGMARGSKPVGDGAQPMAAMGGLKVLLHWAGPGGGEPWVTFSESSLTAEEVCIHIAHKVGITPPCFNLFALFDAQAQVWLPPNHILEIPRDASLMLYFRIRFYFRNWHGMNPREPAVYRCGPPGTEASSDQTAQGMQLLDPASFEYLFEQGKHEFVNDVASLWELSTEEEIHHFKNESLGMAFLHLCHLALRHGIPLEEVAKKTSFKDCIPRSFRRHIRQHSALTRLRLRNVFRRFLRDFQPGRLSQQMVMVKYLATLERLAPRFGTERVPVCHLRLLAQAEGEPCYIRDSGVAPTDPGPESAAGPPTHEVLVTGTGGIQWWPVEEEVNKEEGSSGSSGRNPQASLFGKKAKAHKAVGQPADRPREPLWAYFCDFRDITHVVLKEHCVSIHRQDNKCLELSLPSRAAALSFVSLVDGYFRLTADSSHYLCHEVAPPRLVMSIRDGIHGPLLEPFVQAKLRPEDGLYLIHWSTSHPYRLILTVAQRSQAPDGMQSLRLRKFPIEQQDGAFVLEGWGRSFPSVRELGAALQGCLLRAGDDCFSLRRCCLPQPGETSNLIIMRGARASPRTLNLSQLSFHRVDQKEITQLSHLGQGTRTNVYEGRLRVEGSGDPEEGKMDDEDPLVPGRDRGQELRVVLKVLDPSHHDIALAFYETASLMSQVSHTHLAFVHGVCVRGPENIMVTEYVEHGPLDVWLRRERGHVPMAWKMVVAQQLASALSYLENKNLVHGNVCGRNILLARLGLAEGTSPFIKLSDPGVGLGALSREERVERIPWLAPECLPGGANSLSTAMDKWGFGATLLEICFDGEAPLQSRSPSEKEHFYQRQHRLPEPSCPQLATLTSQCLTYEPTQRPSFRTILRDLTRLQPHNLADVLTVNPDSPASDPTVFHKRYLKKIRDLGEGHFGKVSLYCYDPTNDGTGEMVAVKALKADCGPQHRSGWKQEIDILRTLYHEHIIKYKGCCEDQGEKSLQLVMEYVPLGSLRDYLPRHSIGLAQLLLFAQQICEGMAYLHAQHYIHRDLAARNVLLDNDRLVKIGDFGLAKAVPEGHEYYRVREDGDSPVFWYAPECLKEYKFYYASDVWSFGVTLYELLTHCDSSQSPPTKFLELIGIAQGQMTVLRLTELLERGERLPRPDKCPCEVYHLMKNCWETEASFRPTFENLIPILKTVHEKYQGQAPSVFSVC

[2] = molecular target: Tyrosine-protein kinase JAK1 (Homo sapiens, UniProt P23458); assay: as §1
Tyrosine-protein kinase JAK1, sequence (P23458 whole entry): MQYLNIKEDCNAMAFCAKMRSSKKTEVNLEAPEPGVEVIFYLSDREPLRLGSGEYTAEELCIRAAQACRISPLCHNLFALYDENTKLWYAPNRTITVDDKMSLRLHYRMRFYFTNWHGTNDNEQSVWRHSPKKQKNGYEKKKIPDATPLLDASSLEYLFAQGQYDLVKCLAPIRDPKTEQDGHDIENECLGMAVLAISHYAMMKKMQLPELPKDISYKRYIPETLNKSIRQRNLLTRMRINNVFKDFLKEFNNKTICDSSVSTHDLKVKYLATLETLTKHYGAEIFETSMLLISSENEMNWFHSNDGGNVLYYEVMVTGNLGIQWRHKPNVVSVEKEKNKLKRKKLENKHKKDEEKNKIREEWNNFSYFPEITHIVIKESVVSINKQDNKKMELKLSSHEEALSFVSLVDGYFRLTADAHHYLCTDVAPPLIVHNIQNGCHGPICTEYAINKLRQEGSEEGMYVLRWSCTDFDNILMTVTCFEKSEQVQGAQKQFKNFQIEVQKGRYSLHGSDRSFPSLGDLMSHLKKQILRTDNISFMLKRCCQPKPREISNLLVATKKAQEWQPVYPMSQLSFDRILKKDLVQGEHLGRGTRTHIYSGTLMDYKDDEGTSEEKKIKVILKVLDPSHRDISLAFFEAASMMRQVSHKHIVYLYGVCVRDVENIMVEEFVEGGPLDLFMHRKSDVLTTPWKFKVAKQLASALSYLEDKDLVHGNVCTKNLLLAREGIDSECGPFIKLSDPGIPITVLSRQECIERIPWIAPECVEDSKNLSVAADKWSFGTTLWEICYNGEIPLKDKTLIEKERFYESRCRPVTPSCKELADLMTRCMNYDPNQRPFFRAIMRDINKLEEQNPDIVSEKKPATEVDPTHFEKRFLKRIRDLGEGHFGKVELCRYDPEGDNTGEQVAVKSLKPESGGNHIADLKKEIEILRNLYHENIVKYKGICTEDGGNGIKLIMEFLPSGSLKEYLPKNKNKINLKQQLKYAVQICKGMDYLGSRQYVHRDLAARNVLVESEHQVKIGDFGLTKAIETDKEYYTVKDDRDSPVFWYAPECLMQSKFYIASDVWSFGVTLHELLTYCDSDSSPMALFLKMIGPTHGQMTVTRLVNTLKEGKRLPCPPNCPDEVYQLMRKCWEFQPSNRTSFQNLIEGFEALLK

[3] = molecular target: Tyrosine-protein kinase JAK2 (Homo sapiens, UniProt O60674); assay: as §1
Tyrosine-protein kinase JAK2, sequence (O60674 whole entry): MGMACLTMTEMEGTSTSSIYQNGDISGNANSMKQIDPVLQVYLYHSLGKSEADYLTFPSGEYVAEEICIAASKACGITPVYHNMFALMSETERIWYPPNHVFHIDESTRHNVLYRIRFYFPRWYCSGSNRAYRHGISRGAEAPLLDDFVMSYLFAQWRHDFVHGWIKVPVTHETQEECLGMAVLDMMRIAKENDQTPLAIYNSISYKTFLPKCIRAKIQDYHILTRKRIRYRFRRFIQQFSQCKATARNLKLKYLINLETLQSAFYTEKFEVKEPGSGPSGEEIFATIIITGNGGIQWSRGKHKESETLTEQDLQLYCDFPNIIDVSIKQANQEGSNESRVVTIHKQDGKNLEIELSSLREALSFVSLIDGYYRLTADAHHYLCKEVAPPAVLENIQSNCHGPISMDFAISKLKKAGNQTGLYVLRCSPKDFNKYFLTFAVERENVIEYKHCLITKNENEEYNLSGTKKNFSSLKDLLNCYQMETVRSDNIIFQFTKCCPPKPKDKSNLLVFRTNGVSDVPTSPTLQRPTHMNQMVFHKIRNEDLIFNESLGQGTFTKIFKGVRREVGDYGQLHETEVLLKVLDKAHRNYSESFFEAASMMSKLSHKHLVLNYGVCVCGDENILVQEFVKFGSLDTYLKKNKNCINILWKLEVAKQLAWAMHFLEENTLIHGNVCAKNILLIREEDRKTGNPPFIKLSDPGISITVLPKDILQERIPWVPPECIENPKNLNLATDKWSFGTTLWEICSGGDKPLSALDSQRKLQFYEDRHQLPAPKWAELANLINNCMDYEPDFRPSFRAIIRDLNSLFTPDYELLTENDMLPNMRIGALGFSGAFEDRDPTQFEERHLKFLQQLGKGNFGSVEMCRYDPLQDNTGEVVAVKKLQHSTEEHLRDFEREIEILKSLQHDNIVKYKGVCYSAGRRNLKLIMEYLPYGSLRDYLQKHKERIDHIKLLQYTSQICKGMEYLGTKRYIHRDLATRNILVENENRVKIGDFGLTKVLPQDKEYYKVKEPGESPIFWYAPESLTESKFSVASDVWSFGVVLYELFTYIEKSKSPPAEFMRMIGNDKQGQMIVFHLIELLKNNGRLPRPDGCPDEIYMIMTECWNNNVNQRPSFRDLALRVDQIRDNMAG

[4] = molecular target: T1, Tyrosine-protein kinase JAK3 (Homo sapiens, UniProt P52333); assay: as §1
T1 sequence (P52333 whole entry): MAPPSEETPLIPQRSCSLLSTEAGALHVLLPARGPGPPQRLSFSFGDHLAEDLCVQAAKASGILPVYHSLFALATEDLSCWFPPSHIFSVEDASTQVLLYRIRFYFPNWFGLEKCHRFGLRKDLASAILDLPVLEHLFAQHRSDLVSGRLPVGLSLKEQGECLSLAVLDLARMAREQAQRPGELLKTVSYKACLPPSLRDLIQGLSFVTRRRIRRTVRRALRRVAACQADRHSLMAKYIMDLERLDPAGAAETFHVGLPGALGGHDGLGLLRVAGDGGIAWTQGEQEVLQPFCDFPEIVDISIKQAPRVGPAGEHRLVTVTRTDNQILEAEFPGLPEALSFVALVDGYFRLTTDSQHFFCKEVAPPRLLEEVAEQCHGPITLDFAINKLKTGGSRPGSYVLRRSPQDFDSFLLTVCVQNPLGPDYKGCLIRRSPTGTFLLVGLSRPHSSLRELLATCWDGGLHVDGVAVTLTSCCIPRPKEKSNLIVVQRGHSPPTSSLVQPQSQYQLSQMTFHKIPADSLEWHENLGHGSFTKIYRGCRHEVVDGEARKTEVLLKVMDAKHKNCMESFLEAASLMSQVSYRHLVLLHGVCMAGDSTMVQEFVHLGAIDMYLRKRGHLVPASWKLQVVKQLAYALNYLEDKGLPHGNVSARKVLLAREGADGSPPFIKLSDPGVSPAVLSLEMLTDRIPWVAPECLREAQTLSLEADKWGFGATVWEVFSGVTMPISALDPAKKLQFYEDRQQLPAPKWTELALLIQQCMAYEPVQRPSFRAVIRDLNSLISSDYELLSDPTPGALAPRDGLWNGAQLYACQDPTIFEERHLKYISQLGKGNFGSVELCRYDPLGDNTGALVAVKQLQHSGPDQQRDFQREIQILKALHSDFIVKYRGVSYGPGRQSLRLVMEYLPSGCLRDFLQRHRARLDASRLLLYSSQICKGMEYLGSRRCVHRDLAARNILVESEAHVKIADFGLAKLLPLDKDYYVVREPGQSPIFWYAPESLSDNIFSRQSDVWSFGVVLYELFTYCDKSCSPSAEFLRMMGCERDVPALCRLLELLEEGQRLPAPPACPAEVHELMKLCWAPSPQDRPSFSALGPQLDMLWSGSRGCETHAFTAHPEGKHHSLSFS

Measured: IC50

CCC(CC)Cn1ccc2cnc(Nc3cnn(CC(=O)O[C@@H]4C[C@@H](C(=O)OC)N(C)C4)c3)nc21
< 100 nM: [1] | [2] | [3] | [4]
